This data set has as its system rodent carcinogenicity bioassays, tumor incidence. The data set can be described thus: CCRIS carcinogenicity studies. The method, boiled down:
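NCI-built, expert-reviewed records of carcinogenicity and related test outcomes (mutagenicity, tumor promotion/inhibition) compiled from published and report sources, historical span 1985-2011, not updated.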

Activity calls are given as the source filed them. The rule behind the calls is not given here.

Consider `ClC(Cl)Cl`, for which the carcinogen call reads like this: (Species: FISH, Strain/Sex: ORYZIPIAS LATIPES/FEMALE, Route: IMMERSION, Dose: 0, 0.017, 0.151, 1.463 MG/L AQUEOUS SOLUTION FOR 6 MO (STUDY DURATION: 6 MO), Dose: 0, 0.017, 0.151, 1.463 MG/L AQUEOUS SOLUTION FOR 6 MO (STUDY DURATION: 6 MO)) “inactive; negative”; (Species: FISH, Strain/Sex: ORYZIPIAS LATIPES/FEMALE, Route: IMMERSION, Dose: 0, 0.017, 0.151, 1.463 MG/L AQUEOUS SOLUTION FOR 9 MO (STUDY DURATION: 9 MO), Dose: 0, 0.017, 0.151, 1.463 MG/L AQUEOUS SOLUTION FOR 9 MO (STUDY DURATION: 9 MO)) “inactive; negative”; (Species: FISH, Strain/Sex: ORYZIPIAS LATIPES/MALE, Route: IMMERSION, Dose: 0, 0.017, 0.151, 1.463 MG/L AQUEOUS SOLUTION FOR 6 MO (STUDY DURATION: 6 MO), Dose: 0, 0.017, 0.151, 1.463 MG/L AQUEOUS SOLUTION FOR 6 MO (STUDY DURATION: 6 MO)) “inactive; negative”; (Species: FISH, Strain/Sex: ORYZIPIAS LATIPES/MALE, Route: IMMERSION, Dose: 0, 0.017, 0.151, 1.463 MG/L AQUEOUS SOLUTION FOR 9 MO (STUDY DURATION: 9 MO), Dose: 0, 0.017, 0.151, 1.463 MG/L AQUEOUS SOLUTION FOR 9 MO (STUDY DURATION: 9 MO)) “inactive; negative”; (Species: MOUSE, Strain/Sex: B6C3F1/FEMALE, Route: ORAL, Dose: 0, 200, 400, 900, 1800 MG/L IN DRINKING WATER FOR 104 WK (STUDY DURATION: 24 MO), Dose: 0, 200, 400, 900, 1800 MG/L IN DRINKING WATER FOR 104 WK (STUDY DURATION: 24 MO)) “inactive; negative”; (Species: MOUSE, Strain/Sex: B6C3F1/FEMALE, Route: ORAL, Dose: 0, 200, 400, 900, 1800 ML/L IN DRINKING WATER FOR AN AVERAGE DOSE OF 0, 34, 65, 130, 263 MG/KG BW/D FOR 104 WK (STUDY DU, Dose: 0, 200, 400, 900, 1800 ML/L IN DRINKING WATER FOR AN AVERAGE DOSE OF 0, 34, 65, 130, 263 MG/KG BW/D FOR 104 WK (STUDY DU) “inactive; negative”. Further, the carcinogen call (Species: MOUSE, Strain/Sex: B6C3F1/MALE,FEMALE, Route: GAVAGE, Tumor Site: Type of Lesion: LIVER: HEPATOCELLULAR CARCINOMA) is “active; positive”; the carcinogen call (Species: MOUSE, Strain/Sex: BDF1/FEMALE, Route: INHALATION, Dose: 0, 5, 30, 90 PPM IN AIR, 6 HR/D, 5 D/WK FOR 104 WK (STUDY DURATION: 104 WK), Dose: 0, 5, 30, 90 PPM IN AIR, 6 HR/D, 5 D/WK FOR 104 WK (STUDY DURATION: 104 WK), Tumor Site: Type of Lesion: LIVER: HEPATOCELLULAR CARCINOMA, HEPATOCELLULAR CARCINOMA AND ADENOMA) is “active; positive”; the carcinogen call (Species: MOUSE, Strain/Sex: BDF1/MALE, Route: INHALATION, Dose: 0, 5, 30, 90 PPM IN AIR, 6 HR/D, 5 D/WK FOR 104 WK (STUDY DURATION: 104 WK), Dose: 0, 5, 30, 90 PPM IN AIR, 6 HR/D, 5 D/WK FOR 104 WK (STUDY DURATION: 104 WK), Tumor Site: Type of Lesion: LIVER: HEPATOCELLULAR CARCINOMA, HEPATOCELLULAR CARCINOMA AND ADENOMA, KIDNEYS: RENAL CELL CARCINOMA, RENAL CELL ADENOMA) was “active; positive”; the carcinogen call (Species: RAT, Strain/Sex: F344/DUCRJ/MALE, Route: INHALATION, Dose: 0;25, 50, 100 PPM VAPOR CHAMBER 6 HR/D, 5 D/WK FOR 104 WK (STUDY DURATION: 104 WK), Dose: 0;25, 50, 100 PPM VAPOR CHAMBER 6 HR/D, 5 D/WK FOR 104 WK (STUDY DURATION: 104 WK)) is “inactive; negative”; the carcinogen call (Species: RAT, Strain/Sex: F344/DUCRJ/MALE, Route: ORAL AND INHALATION, Dose: 0, 1,000 PPM IN DRINKING WATER AND 0, 25, 50, 100 PPM VAPOR CHAMBER 6 HR/D, 5 D/WK , BOTH FOR 104 WK (STUDY DURATION: 10, Dose: 0, 1,000 PPM IN DRINKING WATER AND 0, 25, 50, 100 PPM VAPOR CHAMBER 6 HR/D, 5 D/WK , BOTH FOR 104 WK (STUDY DURATION: 10, Tumor Site: Type of Lesion: KIDNEY: ADENOMA, CARCINOMA, THYROID: ADENOMA, CARCINOMA) was “active; positive”; the carcinogen call (Species: RAT, Strain/Sex: F344/DUCRJ/MALE, Route: ORAL, Dose: 0, 1,000 PPM IN DRINKING FOR 104 WK (STUDY DURATION: 104 WK)) is “inactive; negative”. The carcinogen call is “inactive; negative” (Species: RAT, Strain/Sex: F344/FEMALE, Route: INHALATION, Dose: 0, 10, 30, 90 PPM IN AIR, 6 HR/D, 5 D/WK FOR 104 WK (STUDY DURATION: 104 WK), Dose: 0, 10, 30, 90 PPM IN AIR, 6 HR/D, 5 D/WK FOR 104 WK (STUDY DURATION: 104 WK)); “inactive; negative” (Species: RAT, Strain/Sex: F344/MALE, Route: INHALATION, Dose: 0, 10, 30, 90 PPM IN AIR, 6 HR/D, 5 D/WK FOR 104 WK (STUDY DURATION: 104 WK), Dose: 0, 10, 30, 90 PPM IN AIR, 6 HR/D, 5 D/WK FOR 104 WK (STUDY DURATION: 104 WK)); “active; positive” (Species: RAT, Strain/Sex: OSBORNE-MENDEL/MALE, Route: GAVAGE, Tumor Site: Type of Lesion: KIDNEY: ADENOMA, CARCINOMA); “active; positive” (Species: RAT, Strain/Sex: OSBORNE-MENDEL/MALE, Route: ORAL, Dose: 0, 200, 400, 900, 1800 MG/L IN DRINKING WATER FOR 104 WK (STUDY DURATION: 24 MO), Dose: 0, 200, 400, 900, 1800 MG/L IN DRINKING WATER FOR 104 WK (STUDY DURATION: 24 MO), Tumor Site: Type of Lesion: KIDNEY: TUBULAR CELL CARCINOMA OR ADENOCARCINOMA, TUBULAR CELL CARCINOMA, ADRENAL GLAND: CORTICAL ADENOMA, PHEOCHROMOCYT); “active; positive” (Species: RAT, Strain/Sex: OSBORNE-MENDEL/MALE, Route: ORAL, Dose: 0, 200, 400, 900, 1800 ML/L IN DRINKING WATER FOR AN AVERAGE DOSE OF 0, 19, 38, 81, 160 MG/KG BW/D FOR 104 WK (STUDY DUR, Dose: 0, 200, 400, 900, 1800 ML/L IN DRINKING WATER FOR AN AVERAGE DOSE OF 0, 19, 38, 81, 160 MG/KG BW/D FOR 104 WK (STUDY DUR, Tumor Site: Type of Lesion: KIDNEY (TUBULAR CELL): ADENOMA OR ADENOCARCINOMA); “active; positive” (Species: RAT, Strain/Sex: WISTAR/FEMALE, Route: ORAL, Dose: 0, 2 ML/L (24 MILLIMOLAR) IN DRINKING WATER FOR 72 WK THEN DOSE HALVED FOR DURATION OF STUDY (STUDY DURATION: LIFETIME), Tumor Site: Type of Lesion: LIVER: NEOPLASTIC NODULES). In addition, the carcinogen call reads like this: (Species: RAT, Strain/Sex: WISTAR/MALE, Route: ORAL, Dose: 0, 2 ML/L (24 MILLIMOLAR) IN DRINKING WATER FOR 72 WK THEN DOSE HALVED FOR DURATION OF STUDY (STUDY DURATION: LIFETIME)) “inactive; negative”; (Species: Rat, Strain/Sex: F344/DuCrj/ Male (50 per group), Route: Inhalation and oral (drinking water), Dose: 0, 25, 50, 100 ppm in air, 6 hr/d, 5 d/wk for 104 wk, each group also given chloroform-formulated drinking water (1000 p, Dose: 0, 25, 50, 100 ppm in air, 6 hr/d, 5 d/wk for 104 wk, each group also given chloroform-formulated drinking water (1000 p, Tumor Site: Type of Lesion: KIDNEY: renal-cell adenomas and carcinomas) “active; positive, positive trend; significant increase in high dose group; exposure leve”; (Species: Rat, Strain/Sex: F344/DuCrj/ Male (50 per group), Route: Inhalation, Dose: 0, 25, 50, 100 ppm in air, 6 hr/d, 5 d/wk for 104 wk, Dose: 0, 25, 50, 100 ppm in air, 6 hr/d, 5 d/wk for 104 wk, Tumor Site: Type of Lesion: KIDNEY: one renal-cell adenoma in the high dose group) “inactive; negative”.

For the origin of these results see PubChem BioAssay AID1259411 (Chemical Carcinogenesis Research Information System (CCRIS), 2018).
